Experimental data as given in paper PMC4503722, “Novel Phenotypic Outcomes Identified for a Public Collection of Approved Drugs from a Publicly Accessible Panel of Assays” (PLoS ONE, 2015).
Like-named read-outs stand apart in the source and are kept apart here.

Experiments:
SNU-C1 = assay: cells; type: cell-based; conditions: Homo sapiens
[1] = tested on: nuclear β-catenin in C2C12 cells; assay: cells; type: cell-based
[2] = tested on: endothelial tube formation in co-cultures of ECFCs and ADSCs treated with VEGF; assay: cells; type: cell-based, human
DLD-1 = assay: cells; type: cell-based; conditions: Homo sapiens
INS-1E cells = assay: cells; type: cell-based, rat
RKO = assay: cells; type: cell-based
HeLa cells = assay: cells; type: cell-based; conditions: read-out: CellCycle G2/M
SW480 = assay: cells; type: cell-based; conditions: Homo sapiens
hGSK3b = target: T1, hGSK3b (Homo sapiens, UniProt P49841); assay: Cerep LANCE kinase assay hGSK3b (S1 assay 34); type: biochemical; conditions: read-out: GSK3b
T1 construct: purchased Cerep (LANCE kinase assay platform, contract assay)
T1 sequence (P49841 whole entry): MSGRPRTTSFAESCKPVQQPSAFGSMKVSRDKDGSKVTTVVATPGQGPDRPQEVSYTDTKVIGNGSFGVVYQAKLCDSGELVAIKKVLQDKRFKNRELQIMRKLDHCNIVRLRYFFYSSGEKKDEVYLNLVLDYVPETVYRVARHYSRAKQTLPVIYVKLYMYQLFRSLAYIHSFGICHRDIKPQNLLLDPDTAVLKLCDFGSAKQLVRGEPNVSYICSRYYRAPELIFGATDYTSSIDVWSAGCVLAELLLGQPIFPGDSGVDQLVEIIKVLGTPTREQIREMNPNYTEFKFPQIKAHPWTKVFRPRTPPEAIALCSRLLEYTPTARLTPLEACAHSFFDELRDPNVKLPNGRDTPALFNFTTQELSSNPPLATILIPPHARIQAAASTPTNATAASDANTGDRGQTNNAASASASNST

hFLT3 = target: T2, hFLT3 (Homo sapiens, UniProt P36888); assay: Cerep LANCE kinase assay hFLT3 (S1 assay 35); type: biochemical; conditions: read-out: FLT3
T2 construct: purchased Cerep (LANCE kinase assay platform, contract assay)
T2 sequence (P36888 27-993): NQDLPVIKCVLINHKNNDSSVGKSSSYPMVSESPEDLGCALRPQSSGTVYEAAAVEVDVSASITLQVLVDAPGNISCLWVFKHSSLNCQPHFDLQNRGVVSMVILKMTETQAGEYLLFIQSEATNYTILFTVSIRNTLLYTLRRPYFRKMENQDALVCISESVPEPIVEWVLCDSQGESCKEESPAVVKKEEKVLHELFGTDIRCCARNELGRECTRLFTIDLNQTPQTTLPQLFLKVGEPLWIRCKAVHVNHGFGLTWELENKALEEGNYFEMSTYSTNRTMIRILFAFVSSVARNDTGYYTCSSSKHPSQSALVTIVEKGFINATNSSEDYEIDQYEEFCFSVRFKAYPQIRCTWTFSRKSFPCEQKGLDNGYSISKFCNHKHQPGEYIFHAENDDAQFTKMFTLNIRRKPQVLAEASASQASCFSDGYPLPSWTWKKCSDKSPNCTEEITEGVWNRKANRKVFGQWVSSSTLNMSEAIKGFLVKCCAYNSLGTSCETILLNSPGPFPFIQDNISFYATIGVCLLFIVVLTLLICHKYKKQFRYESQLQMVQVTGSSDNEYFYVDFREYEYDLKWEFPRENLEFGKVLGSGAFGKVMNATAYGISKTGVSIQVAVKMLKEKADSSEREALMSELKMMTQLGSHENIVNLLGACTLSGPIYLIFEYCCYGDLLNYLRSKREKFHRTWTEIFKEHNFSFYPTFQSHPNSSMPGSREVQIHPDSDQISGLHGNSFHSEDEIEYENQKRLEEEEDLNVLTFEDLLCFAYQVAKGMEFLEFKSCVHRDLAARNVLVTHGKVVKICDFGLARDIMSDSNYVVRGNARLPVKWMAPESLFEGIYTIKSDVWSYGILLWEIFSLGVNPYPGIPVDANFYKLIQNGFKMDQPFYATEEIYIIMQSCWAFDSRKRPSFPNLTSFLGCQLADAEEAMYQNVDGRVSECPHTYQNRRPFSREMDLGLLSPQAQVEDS

NCI-H716 cells = assay: cells; type: cell-based, Human
hp70S6K1 (RPS6KB1) = target: T3, hp70S6K1 (RPS6KB1) (Homo sapiens, UniProt P23443); assay: Cerep LANCE kinase assay hp70S6K1 (S1 assay 31); type: biochemical; conditions: read-out: p70S6K1
T3 construct: purchased Cerep (LANCE kinase assay platform, contract assay)
T3 sequence (P23443 whole entry): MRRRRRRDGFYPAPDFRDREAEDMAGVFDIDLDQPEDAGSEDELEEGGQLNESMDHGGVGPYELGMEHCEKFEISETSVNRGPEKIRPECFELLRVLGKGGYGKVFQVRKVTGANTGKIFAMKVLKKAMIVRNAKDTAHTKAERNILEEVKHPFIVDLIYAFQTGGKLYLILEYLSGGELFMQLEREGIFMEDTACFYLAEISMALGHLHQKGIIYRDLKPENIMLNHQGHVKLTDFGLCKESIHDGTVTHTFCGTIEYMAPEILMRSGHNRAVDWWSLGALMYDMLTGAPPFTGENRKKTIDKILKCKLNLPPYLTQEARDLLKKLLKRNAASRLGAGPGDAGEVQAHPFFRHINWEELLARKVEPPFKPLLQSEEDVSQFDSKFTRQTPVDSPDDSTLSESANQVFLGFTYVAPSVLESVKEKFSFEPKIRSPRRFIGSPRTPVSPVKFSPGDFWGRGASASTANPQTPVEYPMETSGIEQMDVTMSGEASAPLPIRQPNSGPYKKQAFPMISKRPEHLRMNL

HT-29 = assay: cells; type: cell-based
Colo320 = assay: cells; type: cell-based
HCT116 = assay: cells; type: cell-based; conditions: Homo sapiens
[3] = tested on: HCT116 cells treated with a GSK3β inhibitor; assay: cells; type: cell-based; conditions: Homo sapiens
hKDR = target: T4, hKDR (Homo sapiens, UniProt P35968); assay: Cerep LANCE kinase assay hKDR (S1 assay 32); type: biochemical; conditions: read-out: KDR
T4 construct: purchased Cerep (LANCE kinase assay platform, contract assay)
T4 sequence (P35968 20-1356): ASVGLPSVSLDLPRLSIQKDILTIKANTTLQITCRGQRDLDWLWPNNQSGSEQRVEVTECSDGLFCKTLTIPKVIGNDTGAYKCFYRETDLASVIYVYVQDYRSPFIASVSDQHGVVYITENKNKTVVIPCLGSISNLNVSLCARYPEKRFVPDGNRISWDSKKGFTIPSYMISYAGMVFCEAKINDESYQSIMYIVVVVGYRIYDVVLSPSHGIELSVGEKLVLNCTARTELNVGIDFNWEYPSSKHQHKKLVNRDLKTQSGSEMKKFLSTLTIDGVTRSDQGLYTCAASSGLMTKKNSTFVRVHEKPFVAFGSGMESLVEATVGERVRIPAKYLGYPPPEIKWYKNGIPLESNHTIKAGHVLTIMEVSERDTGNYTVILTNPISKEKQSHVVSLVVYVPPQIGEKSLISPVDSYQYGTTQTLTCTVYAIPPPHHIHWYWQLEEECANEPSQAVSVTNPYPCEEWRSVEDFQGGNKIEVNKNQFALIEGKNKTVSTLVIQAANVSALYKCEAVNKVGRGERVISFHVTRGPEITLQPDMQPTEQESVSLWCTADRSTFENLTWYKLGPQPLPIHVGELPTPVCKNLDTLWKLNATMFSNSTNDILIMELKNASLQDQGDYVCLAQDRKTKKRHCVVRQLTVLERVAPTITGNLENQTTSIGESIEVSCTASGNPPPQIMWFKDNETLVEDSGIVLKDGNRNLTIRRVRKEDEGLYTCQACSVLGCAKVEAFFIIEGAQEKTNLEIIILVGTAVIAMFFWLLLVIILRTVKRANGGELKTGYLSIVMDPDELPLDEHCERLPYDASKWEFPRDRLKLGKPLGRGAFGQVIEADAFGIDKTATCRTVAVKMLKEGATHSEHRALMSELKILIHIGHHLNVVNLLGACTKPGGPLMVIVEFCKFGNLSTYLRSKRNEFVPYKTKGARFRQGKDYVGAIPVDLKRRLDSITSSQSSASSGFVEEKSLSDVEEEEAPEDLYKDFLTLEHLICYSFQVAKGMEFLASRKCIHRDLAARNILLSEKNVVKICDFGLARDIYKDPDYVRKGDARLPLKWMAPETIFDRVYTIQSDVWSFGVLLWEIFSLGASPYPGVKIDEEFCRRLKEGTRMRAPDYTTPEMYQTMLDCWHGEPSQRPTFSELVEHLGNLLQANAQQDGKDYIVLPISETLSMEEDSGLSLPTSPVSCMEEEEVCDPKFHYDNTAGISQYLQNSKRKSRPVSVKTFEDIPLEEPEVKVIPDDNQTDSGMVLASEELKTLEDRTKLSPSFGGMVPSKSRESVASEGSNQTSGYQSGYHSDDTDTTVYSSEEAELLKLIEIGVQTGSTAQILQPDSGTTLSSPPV

hJAK2 = target: T5, hJAK2 (Homo sapiens, UniProt O60674); assay: Cerep LANCE kinase assay hJAK2 (S1 assay 33); type: biochemical; conditions: read-out: JAK2
T5 construct: purchased Cerep (LANCE kinase assay platform, contract assay)
T5 sequence (O60674 whole entry): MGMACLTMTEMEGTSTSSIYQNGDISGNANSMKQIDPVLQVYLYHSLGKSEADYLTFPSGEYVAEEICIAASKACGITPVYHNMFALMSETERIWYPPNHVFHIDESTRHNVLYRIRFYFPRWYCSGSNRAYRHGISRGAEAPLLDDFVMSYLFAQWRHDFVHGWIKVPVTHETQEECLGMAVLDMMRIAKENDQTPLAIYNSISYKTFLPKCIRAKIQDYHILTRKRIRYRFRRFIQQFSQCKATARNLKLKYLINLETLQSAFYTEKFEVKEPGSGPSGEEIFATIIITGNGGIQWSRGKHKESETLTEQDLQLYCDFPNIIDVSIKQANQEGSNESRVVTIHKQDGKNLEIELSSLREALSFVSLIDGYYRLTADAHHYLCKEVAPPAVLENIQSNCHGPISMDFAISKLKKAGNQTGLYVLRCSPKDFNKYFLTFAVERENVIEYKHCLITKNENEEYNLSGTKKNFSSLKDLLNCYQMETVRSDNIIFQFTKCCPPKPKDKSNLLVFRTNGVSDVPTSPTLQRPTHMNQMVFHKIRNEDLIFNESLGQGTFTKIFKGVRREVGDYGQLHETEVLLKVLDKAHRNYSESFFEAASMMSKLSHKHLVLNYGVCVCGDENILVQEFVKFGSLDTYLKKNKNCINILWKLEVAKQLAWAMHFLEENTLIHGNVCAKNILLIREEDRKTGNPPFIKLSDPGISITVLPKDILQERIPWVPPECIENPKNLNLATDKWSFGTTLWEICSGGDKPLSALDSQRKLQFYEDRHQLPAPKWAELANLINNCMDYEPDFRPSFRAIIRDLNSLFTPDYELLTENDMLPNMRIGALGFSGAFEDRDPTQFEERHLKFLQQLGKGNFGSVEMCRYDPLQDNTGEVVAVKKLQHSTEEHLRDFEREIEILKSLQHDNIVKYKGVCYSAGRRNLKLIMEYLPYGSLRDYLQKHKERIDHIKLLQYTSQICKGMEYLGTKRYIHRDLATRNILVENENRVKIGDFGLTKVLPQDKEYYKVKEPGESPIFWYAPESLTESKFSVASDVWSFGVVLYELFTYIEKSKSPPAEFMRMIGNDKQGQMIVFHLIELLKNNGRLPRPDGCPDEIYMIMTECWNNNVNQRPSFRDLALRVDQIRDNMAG

[4] = SNU-C1, read-out: Basal_Viability ATP SNU-C1
[5] = Mus musculus, C2C12, read-out: Wnt Pathway
[6] = Homo sapiens, read-out: Anti-Angiogenesis
[7] = DLD-1, read-out: Basal_Viability ATP DLD-1
[8] = Rattus norvegicus, INS-1E, read-out: Insulin Secretion
[9] = Homo sapiens, RKO, read-out: Basal_Viability ATP RKO
[10] = SW480, read-out: Basal_Viability ATP SW480
[11] = Homo sapiens, NCI-H716, read-out: GLP 1 Secretion
[12] = Homo sapiens, HT-29, read-out: Basal_Viability ATP HT-29
[13] = Homo sapiens, COLO 320, read-out: Basal_Viability ATP Colo 320
[14] = HCT-116, read-out: Basal_Viability ATP HCT116
[15] = HCT-116, read-out: GSK3b inh pretreated_Viability ATP HCT116
[16] = Mus musculus, C2C12, IC50 / EC50; C2C12 beta-catenin translocation; read-out: Wnt Pathway
[17] = Homo sapiens, IC50 / EC50; endothelial tube area, ADSC/ECFC co-culture; read-out: Anti-Angiogenesis
[18] = Homo sapiens, RKO; read-out: Basal_Viability ATP RKO
[19] = Homo sapiens, HeLa, IC50 / EC50, HeLa
[20] = Homo sapiens, HT-29; read-out: Basal_Viability ATP HT-29
[21] = HCT-116, GSK3b inhibitor pretreated, read-out: GSK3b inh pretreated_Viability ATP HCT116

SMILES | IC50 (SNU-C1; [4]) [nM] | EC50 [1, 5] [nM] | IC50 [2, 6] [nM] | IC50 (DLD-1; [7]) [nM] | EC50 (INS-1E cells; [8]) [µM] | IC50 (RKO; [9]) [nM] | EC50 (HeLa cells; Homo sapiens, HeLa) [nM] | IC50 (SW480; [10]) [nM] | IC50 (hGSK3b; kinase assay) [µM] | IC50 (hFLT3; kinase assay) [µM] | EC50 (NCI-H716 cells; [11]) [µM] | IC50 (HT-29; [12]) [nM] | IC50 (Colo320; [13]) [nM] | IC50 (HCT116; [14]) [nM] | IC50 [3, 15] [nM] | IC50 (hGSK3b) [µM] | IC50 (hFLT3) [µM] | IC50 (hp70S6K1 (RPS6KB1)) [µM] | IC50 (hKDR) [µM] | IC50 (hJAK2) [µM] | also measured
COc1ccc(-c2ccc3cc(C(=O)O)ccc3c2)cc1C12CC3CC(CC(C3)C1)C2 [Adapalene] | 1780 | > 10000 | 524 | 597 | > 10 | 444 | > 10000 | 405 | 7.25 | > 20 | > 10 | 1120 | 787 | 590 | 945 | – | – | – | – | – | IC50 (hp70S6K1 (RPS6KB1); kinase assay): > 20 µM; IC50 (hKDR; kinase assay): 7.1 µM; IC50 (hJAK2; kinase assay): 5.57 µM
CC(C)(C)[C@H]1CC[C@H](CC2=C(O)C(=O)c3ccccc3C2=O)CC1 [Buparvaquone] | – | > 10000 | 1960 | 218 | > 10 | 133 | > 10000 | 205 | – | – | > 10 | 3390 | 255 | 227 | 66.7 | > 20 | > 20 | > 20 | > 20 | > 20 | –
CCCSc1ccc2nc(NC(=O)OC)[nH]c2c1 [Albendazole] | > 20000 | 1280 | 355 | 108 | > 10 | 165 | 61.2 | > 20000 | – | – | > 10 | > 20000 | 502 | 85.2 | 154 | > 20 | > 20 | > 20 | > 20 | > 20 | –
CC(C)C[C@H](NC(=O)[C@H](CCc1ccccc1)NC(=O)CN1CCOCC1)C(=O)N[C@@H](Cc1ccccc1)C(=O)N[C@@H](CC(C)C)C(=O)[C@@]1(C)CO1 [carfilzomib, reference compound] | – | – | – | – | – | – | – | – | – | – | – | – | – | – | – | > 20 | > 20 | > 20 | > 20 | > 20 | IC50 (SNU-C1; SNU-C1, 72 h, Table 2, 72 h, Cell TiterGlo, non-adherent, 20 coded, read-out: SNU-C1 viab. IC50): 1 nM; IC50 (SNU-C1; SNU-C1, basal, read-out: Basal_Viability ATP SNU-C1): 1.47 nM; EC50 [1, 16]: 15.2 nM; EC50 ([1]; Mus musculus, C2C12; read-out: Wnt pot. EC50): 15 nM; IC50 [2, 17]: 20.4 nM; IC50 ([2]; Homo sapiens; read-out: Anti-Angio IC50): 20 nM; IC50 (DLD-1; DLD-1, 72 h, Table 2, 72 h, Cell TiterGlo, non-adherent, 20 coded, read-out: DLD-1 viab. IC50): 7 nM; IC50 (DLD-1; DLD-1, basal, read-out: Basal_Viability ATP DLD-1): 6.96 nM; EC50 (INS-1E cells; Rattus norvegicus, INS-1E; read-out: Ins. sec. EC50): > 10 µM; IC50 (RKO; Homo sapiens, RKO; Table 2; 72 h, Cell TiterGlo, non-adherent; 20 coded; read-out: RKO viab. IC50): 4 nM; IC50 (RKO; [18]): 3.94 nM; EC50 (HeLa cells; [19]): > 10000 nM; EC50 (NCI-H716 cells; Homo sapiens, NCI-H716; read-out: GLP1 sec. EC50): > 10 µM; IC50 (HT-29; Homo sapiens, HT-29; Table 2; 72 h, Cell TiterGlo, non-adherent; 20 coded; read-out: HT-29 viab. IC50): 3 nM; IC50 (HT-29; [20]): 3.18 nM; IC50 (HCT116; HCT-116, 72 h, read-out: HCT-116 viab. IC50, Table 2, basal, 72 h, Cell TiterGlo, non-adherent, 20 coded): 6 nM; IC50 (HCT116; HCT-116, basal, read-out: Basal_Viability ATP HCT116): 5.58 nM; IC50 ([3]; HCT-116, read-out: HCT-116 (GSK3β) viab. IC50, Table 2, GSK3β inhibitor LY2090314 20 nM, 72 h, Cell TiterGlo, 20 coded): 2 nM; IC50 [3, 21]: 1.73 nM
COc1ccc2cc1Oc1ccc(cc1)C[C@H]1c3c(cc4c(c3Oc3cc5c(cc3OC)CCN(C)[C@@H]5C2)OCO4)CCN1C [Cepharanthine] | 7480 | – | – | 12400 | – | – | – | – | – | – | – | – | – | 9540 | – | > 20 | > 20 | > 20 | > 20 | > 20 | EC50 [1, 16]: 2050 nM; IC50 [2, 17]: 3020 nM; EC50 (INS-1E cells; Rattus norvegicus; IC50 / EC50; INS-1E; read-out: Insulin Secretion): > 10 µM; IC50 (RKO; [18]): 3790 nM; EC50 (HeLa cells; [19]): > 10000 nM; IC50 (SW480; SW480, basal, read-out: Basal_Viability ATP SW480): 308 nM; EC50 (NCI-H716 cells; Homo sapiens; IC50 / EC50; NCI-H716; read-out: GLP 1 Secretion): > 10 µM; IC50 (HT-29; [20]): 1360 nM; IC50 (Colo320; Homo sapiens, COLO 320; read-out: Basal_Viability ATP Colo 320): 1430 nM; IC50 [3, 21]: 3570 nM
COC(=O)Nc1nc2ccc([S+]([O-])c3ccccc3)cc2[nH]1 (stereo not shown) [Oxfendazole] | – | 468 | 288 | > 20000 | > 10 | 1 | 331 | > 20000 | > 20 | > 20 | > 10 | > 20000 | – | 1 | 1 | – | – | – | – | – | IC50 (hp70S6K1 (RPS6KB1); kinase assay): > 20 µM; IC50 (hKDR; kinase assay): > 20 µM; IC50 (hJAK2; kinase assay): > 20 µM
CC[C@]1(O)C[C@@H]2CN(CCc3c([nH]c4ccccc34)[C@@](C(=O)OC)(c3cc4c(cc3OC)N(C)[C@H]3[C@@](O)(C(=O)OC)[C@H](OC(C)=O)[C@]5(CC)C=CCN6CC[C@]43[C@@H]65)C2)C1 [Vinblastine] | – | 5.8 | 2.3 | – | > 10 | 1 | 3.2 | – | – | – | > 10 | 1 | 1 | – | 1 | > 20 | > 20 | > 20 | > 20 | > 20 | EC50 ([1]; read-out: Wnt Pathway): 3.5 nM; IC50 ([2]; read-out: Anti-Angiogenesis): 2.6 nM; EC50 (HeLa cells): 4.83 nM
COC(=O)Nc1nc2ccc(C(=O)C3CC3)cc2[nH]1 [Ciclobendazole] | – | – | – | – | – | – | – | – | 14.9 | 6.14 | – | – | – | – | – | – | – | – | – | – | IC50 (SNU-C1; SNU-C1, basal, SNU-C1, read-out: Basal_Viability ATP SNU-C1): > 20000 nM; EC50 ([1]; Mus musculus, C2C12; read-out: Wnt Pathway): 349 nM; IC50 ([2]; Homo sapiens; read-out: Anti-Angiogenesis): 1190 nM; IC50 (DLD-1; DLD-1, basal, DLD-1, read-out: Basal_Viability ATP DLD-1): 5460 nM; EC50 (INS-1E cells; Rattus norvegicus, INS-1E; read-out: Insulin Secretion): > 10 µM; IC50 (RKO; Homo sapiens; basal; RKO; read-out: Basal_Viability ATP RKO): 162 nM; EC50 (HeLa cells; Homo sapiens, HeLa, S2 Table, HeLa, 20 = no response at highest concentration): 416 nM; IC50 (SW480; SW480, basal, SW480, read-out: Basal_Viability ATP SW480): > 20000 nM; EC50 (NCI-H716 cells; Homo sapiens, NCI-H716; read-out: GLP 1 Secretion): > 10 µM; IC50 (hp70S6K1 (RPS6KB1); kinase assay): > 20 µM; IC50 (HT-29; Homo sapiens; basal; HT-29; read-out: Basal_Viability ATP HT-29): 1680 nM; IC50 (Colo320; Homo sapiens; basal; Colo 320; read-out: Basal_Viability ATP Colo 320): 156 nM; IC50 (HCT116; HCT-116, basal, HCT116, read-out: Basal_Viability ATP HCT116): 174 nM; IC50 (hKDR; kinase assay): 15.1 µM; IC50 (hJAK2; kinase assay): > 20 µM
